Source: patent US20180338980A1, “AROMATIC SULFONAMIDE DERIVATIVES” (BAYER PHARMA AKTIENGESELLSCHAFT, priority 2015, published 2018)

Assays:
P2X4 [1] = biological target: T1, P2X4 (Homo sapiens, UniProt Q99571); assay: Assay B: human P2X4 receptor cell line, mitochondrial photina luminescence (agonist Bz-ATP at EC50); assay type: cell-based; parameters: host or cells: HEK 293 (recombinant, constitutively expressing; with mitochondrial photina in Assay B); conditions: HEK human P2X4 cell line, photina luminescence, agonist Bz-ATP at EC50, average; for Emax: read-out: human P2X4 Assay B avg Efficacy
T1 sequence (Q99571 1-388): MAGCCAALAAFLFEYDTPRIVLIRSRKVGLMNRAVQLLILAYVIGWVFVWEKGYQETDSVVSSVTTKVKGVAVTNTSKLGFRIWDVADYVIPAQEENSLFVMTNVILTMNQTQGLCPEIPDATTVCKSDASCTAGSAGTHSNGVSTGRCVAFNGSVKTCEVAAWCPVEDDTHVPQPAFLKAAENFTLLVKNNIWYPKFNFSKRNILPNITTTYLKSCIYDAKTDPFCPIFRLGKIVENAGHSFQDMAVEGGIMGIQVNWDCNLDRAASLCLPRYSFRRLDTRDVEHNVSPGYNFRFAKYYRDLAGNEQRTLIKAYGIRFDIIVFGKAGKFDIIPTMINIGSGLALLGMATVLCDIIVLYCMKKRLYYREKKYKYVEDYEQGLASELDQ
Procedure, shortened: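 Bz-ATP at its EC50 activates human P2X4 stably expressed in a cell line that also carries the calcium-sensitive photoprotein mitochondrial photina (coelenterazine cofactor). Light emitted on calcium influx is measured straight away in a luminometer. Reduced luminescence indicates antagonism.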

P2X4 [2] = biological target: T1, P2X4; assay: Assay A: human P2X4 receptor cell line, FLIPR calcium assay (Fluo-8, agonist Bz-ATP at EC80); assay type: cell-based; parameters: host or cells: HEK 293 (recombinant, constitutively expressing; with mitochondrial photina in Assay B); conditions: HEK human P2X4 cells, Fluo-8 FLIPR; for Emax: percentage of maximal inhibition, read-out: human P2X4 Assay A avg Efficacy; for IC50: Bz-ATP at EC80, average values
Method: A fluorescent imaging plate reader (FLEX/FLIPR station; Molecular Devices) was used to monitor intracellular calcium levels using the calcium-chelating dye Fluo-8 (Molecular Probes). […] Cells expressing purinergic receptors human P2X4 (HEK human P2X4: PerkinElmer, Product No.: AX-015-PCF) were plated at a density of 20,000 cells/well in poly-D-lysine-coated 384-well plates approximately 20 hours before beginning the assay. On the day of the assay, the medium was removed and 30 μl of dye buffer (Hank's balanced salt solution, 10 mM HEPES, 1.8 mM CaCl2), 1 mM MgCl2, 2 mM probenecid, 5 mM D-glucose monohydrate, 5 μM Fluo-8, pH=7.4) was added for 30 min at […] and 5% CO2. The antagonist in probenecid buffer (Hank's balanced salt solution, 10 mM HEPES, 1.8 mM CaCl2, 1 mM MgCl2, 2 mM probenecid, 5 mM D-glucose monohydrate, pH=7.4) was added in a volume of 10 μl and allowed to incubate for 30 min at room temperature. The final assay DMSO concentration is 0.5%. The agonist, Bz-ATP, is added in a volume of 10 μl at a concentration representing the EC80 value. The fluorescence was measured for an interval of 120 sec at 2 sec intervals and analyzed based on the increase in peak relative fluorescence units (RFU) compared to the basal fluorescence. Peak fluorescence was used to determine the response to agonist obtained at each concentration of antagonist by the following equation:
% Response=100*(RFU(drug)−RFU(control))/(RFU(DMSO)−RFU(control))
The compounds were tested in triplicates per plate and mean values were plotted in Excel XLFit to determine IC50 values, percentage of maximal inhibition and the Hill coefficients.

| Structure (SMILES) | Emax (P2X4 [1]) | Emax (P2X4 [2]) | IC50 (P2X4 [1]) | IC50 (P2X4 [2]) |
| --- | --- | --- | --- | --- |
| NS(=O)(=O)c1cc(NC(=O)Cc2ccc(F)cc2)ccc1Oc1cccc(Cl)c1 [Example 085, N-[4-(3-Chlorophenoxy)-3-sulfamoylphenyl]-2-(4-fluorophenyl)acetamide] | 59% | 86% | – | – |
| NS(=O)(=O)c1cc(NC(=O)Cc2ccccc2Cl)ccc1Oc1cccc(N2CCOCC2)c1 [Example 026, 2-(2-Chlorophenyl)-N-{4-[3-(morpholin-4-yl)phenoxy]-3-sulfamoylphenyl}acetamide] | 71% | 95% | 82 nM | 21 nM |
| CC(C)(O)c1ccc(Oc2ccc(NC(=O)Cc3ccccc3Cl)cc2S(N)(=O)=O)cc1 [Example 264, 2-(2-Chlorophenyl)-N-{4-[4-(2-hydroxypropan-2-yl)phenoxy]-3-sulfamoylphenyl}acetamide] | 80% | 62% | – | – |
| Cc1nc(-c2cccc(Oc3ccc(NC(=O)Cc4ccccc4Cl)cc3S(N)(=O)=O)c2)cs1 [Example 061, 2-(2-Chlorophenyl)-N-{4-[3-(2-methyl-1,3-thiazol-4-yl)phenoxy]-3-sulfamoylphenyl}acetamide] | 72% | 88% | 147 nM | 53 nM |
| NS(=O)(=O)c1cc(NC(=O)Cc2c(Cl)ccc(C(F)(F)F)c2Cl)ccc1Oc1cccc(Cl)c1 [Example 130, N-[4-(3-Chlorophenoxy)-3-sulfamoylphenyl]-2-[2,6-dichloro-3-(trifluoromethyl)phenyl]acetamide] | 70% | 91% | 1050 nM | 979 nM |
| NS(=O)(=O)c1cc(NC(=O)Cc2ccccc2Cl)ccc1OCc1ccccc1Cl [Example 144, N-{4-[(2-Chlorobenzyl)oxy]-3-sulfamoylphenyl}-2-(2-chlorophenyl)acetamide] | 76% | 93% | 129 nM | 86 nM |
| COc1cccc(Cl)c1CC(=O)Nc1ccc(Oc2cccc(Cl)c2)c(S(N)(=O)=O)c1 [Example 101, 2-(2-Chloro-6-methoxyphenyl)-N-[4-(3-chlorophenoxy)-3-sulfamoylphenyl]acetamide] | 69% | 97% | 59 nM | 38 nM |
| NS(=O)(=O)c1cc(NC(=O)Cc2ccccc2Cl)ccc1Oc1cc(Cl)ccn1 [Example 039, 2-(2-chlorophenyl)-N-{4-[(4-chloropyridin-2-yl)oxy]-3-sulfamoylphenyl}acetamide] | 65% | 89% | 140 nM | 7 nM |
| NS(=O)(=O)c1cc(NC(=O)Cc2ccccc2)cnc1Oc1cccc(C(F)(F)F)c1 [Example 169, 2-Phenyl-N-{5-sulfamoyl-6-[3-(trifluoromethyl)phenoxy]pyridin-3-yl}acetamide] | 75% | 74% | 1030 nM | 274 nM |
| NS(=O)(=O)c1cc(NC(=O)Cc2ccccc2)ccc1Oc1ccc(Cl)cc1 [Example 077, N-[4-(4-Chlorophenoxy)-3-sulfamoylphenyl]-2-phenylacetamide] | 53% | 54% | 201 nM | 8340 nM |
| CC(Oc1ccc(NC(=O)Cc2ccccc2Cl)cc1S(N)(=O)=O)c1ccccc1 (single isomer, unassigned) [Example 148A, 2-(2-Chlorophenyl)-N-[4-(1-phenylethoxy)-3-sulfamoylphenyl]acetamide] | 68% | 92% | 143 nM | 74 nM |
| Cc1ccc(CC(=O)Nc2ccc(Oc3cccc(Cl)c3)c(S(N)(=O)=O)c2)cc1 [Example 179, N-[4-(3-Chlorophenoxy)-3-sulfamoylphenyl]-2-(4-methylphenyl)acetamide] | 65% | 69% | – | – |
| NS(=O)(=O)c1cc(NC(=O)Cc2ccccc2Cl)ccc1Oc1ccc2c(c1)OCO2 [Example 008, N-[4-(1,3-Benzodioxol-5-yloxy)-3-sulfamoylphenyl]-2-(2-chlorophenyl)acetamide] | 91% | 88% | 73 nM | 44 nM |
| NS(=O)(=O)c1cc(NC(=O)Cc2ccccc2Cl)ccc1Oc1ccccc1F [Example 010, 2-(2-Chlorophenyl)-N-[4-(2-fluorophenoxy)-3-sulfamoylphenyl]acetamide] | 76% | 90% | 73 nM | 27 nM |
| NS(=O)(=O)c1cc(NC(=O)Cc2ccccc2Cl)ccc1Oc1ccc(N2CCOCC2=O)cc1 [Example 174, 2-(2-Chlorophenyl)-N-{4-[4-(3-oxomorpholin-4-yl)phenoxy]-3-sulfamoylphenyl}acetamide] | 64% | 74% | – | – |
| NS(=O)(=O)c1cc(NC(=O)Cc2ccccc2Cl)ccc1OCCc1ccccc1 [Example 155, 2-(2-Chlorophenyl)-N-[4-(2-phenylethoxy)-3-sulfamoylphenyl]acetamide] | 65% | 87% | – | – |
| NS(=O)(=O)c1cc(NC(=O)Cc2ccccc2OC(F)F)ccc1Oc1cccc(Cl)c1 [Example 113, N-[4-(3-Chlorophenoxy)-3-sulfamoylphenyl]-2-[2-(difluoromethoxy)phenyl]acetamide] | 73% | 88% | 239 nM | 173 nM |
| NS(=O)(=O)c1cc(NC(=O)Cc2ccccc2Cl)ccc1Oc1ccc(N2CCCC2=O)cc1 [Example 043, 2-(2-Chlorophenyl)-N-{4-[4-(2-oxopyrrolidin-1-yl)phenoxy]-3-sulfamoylphenyl}acetamide] | 68% | 85% | 671 nM | 515 nM |
| CS(=O)(=O)c1cccc(COc2ccc(NC(=O)Cc3ccccc3Cl)cc2S(N)(=O)=O)c1 [Example 136, 2-(2-Chlorophenyl)-N-(4-{[3-(methylsulfonyl)benzyl]oxy}-3-sulfamoylphenyl)acetamide] | 83% | 90% | 102 nM | 10 nM |
| NS(=O)(=O)c1cc(NC(=O)Cc2ccccc2Cl)ccc1Oc1cccc(N2CCOC2=O)c1 [Example 051, 2-(2-Chlorophenyl)-N-{4-[3-(2-oxo-1,3-oxazolidin-3-yl)phenoxy]-3-sulfamoylphenyl}acetamide] | 83% | 87% | 124 nM | 20 nM |
| Cc1ccc(CC(=O)Nc2ccc(Oc3cccc(Cl)c3)c(S(N)(=O)=O)c2)c(Cl)c1 [Example 095, 2-(2-Chloro-4-methylphenyl)-N-[4-(3-chlorophenoxy)-3-sulfamoylphenyl]acetamide] | 63% | 64% | 99 nM | 137 nM |
| NS(=O)(=O)c1cc(NC(=O)Cc2ccccc2Cl)ccc1OC1CCCCC1 [Example 200, 2-(2-Chlorophenyl)-N-[4-(cyclohexyloxy)-3-sulfamoylphenyl]acetamide] | 83% | 86% | – | – |
| NS(=O)(=O)c1cc(NC(=O)Cc2cccc(C(F)(F)F)c2Cl)ccc1Oc1cccc(Cl)c1 [Example 107, N-[4-(3-Chlorophenoxy)-3-sulfamoylphenyl]-2-[2-chloro-3-(trifluoromethyl)phenyl]acetamide] | 64% | 86% | 901 nM | 201 nM |
| COc1cccc(COc2ccc(NC(=O)Cc3ccccc3Cl)cc2S(N)(=O)=O)c1 [Example 140, 2-(2-Chlorophenyl)-N-{4-[(3-methoxybenzyl)oxy]-3-sulfamoylphenyl}acetamide] | 67% | 103% | 44 nM | 8 nM |
| N#Cc1ccc(CC(=O)Nc2ccc(Oc3cccc(Cl)c3)c(S(N)(=O)=O)c2)cc1 [Example 224, N-[4-(3-Chlorophenoxy)-3-sulfamoylphenyl]-2-(4-cyanophenyl)acetamide] | 61% | 78% | 623 nM | 345 nM |
